Non-standard residues stand in square brackets, D forms with d. Residues, ends and D or L forms follow the SMILES beside them.
Columns and labels:
Horizon-LBA = type: in vitro ADME; conditions: not told
PAMPA = type: in vitro ADME
[1] = R. Strutt and coworkers; cited from earlier work

| Structure (SMILES) | Papp (Horizon-LBA) [×10⁻⁶ cm/s] | Papp (PAMPA) [×10⁻⁶ cm/s] | permeability coefficient (DIB of DOPC, UV detector) [1] |
| --- | --- | --- | --- |
| COc1ccc(C[C@@H]2NC(=O)[C@@H](CC(C)C)NC(=O)[C@H](C(C)C)NC(=O)[C@H](CC(C)C)NC(=O)[C@@H](CC(C)C)NC(=O)[C@H]3CCCN3C2=O)cc1 [Peptide 1] (cyclo(LV[dL]Y(Me)[dP][dL])) | 300 ± 100 | 16.5 ± 0.9 |  |
| Cn1c(=O)c2c(ncn2C)n(C)c1=O [Caffeine] |  |  | 2.81 ± 0.0920 × 10^−4 cm s^−1 |

From article PMC9811578 (Chemical Science, 2022)
